{
  "source": "BigSolDB 2.1",
  "data": [
    {"smiles": "Cc1c(C(=O)/C=C/c2ccccc2)[n+](=O)c2ccccc2n1[O-]", "values": [
      {"measurement": "solubility (mole fraction)", "setting": "in DMF, 283.15 K", "value": 0.00549},
      {"measurement": "solubility (mole fraction)", "setting": "in DMF, 288.15 K", "value": 0.00639},
      {"measurement": "solubility (mole fraction)", "setting": "in DMF, 293.15 K", "value": 0.00748},
      {"measurement": "solubility (mole fraction)", "setting": "in DMF, 298.15 K", "value": 0.00856},
      {"measurement": "solubility (mole fraction)", "setting": "in DMF, 303.15 K", "value": 0.00978},
      {"measurement": "solubility (mole fraction)", "setting": "in DMF, 308.15 K", "value": 0.0111},
      {"measurement": "solubility (mole fraction)", "setting": "in DMF, 313.15 K", "value": 0.0127},
      {"measurement": "solubility (mole fraction)", "setting": "in DMF, 318.15 K", "value": 0.0145},
      {"measurement": "solubility (mole fraction)", "setting": "in DMF, 323.15 K", "value": 0.0163},
      {"measurement": "solubility (mole fraction)", "setting": "in DMF, 328.15 K", "value": 0.0187},
      {"measurement": "solubility (mole fraction)", "setting": "in DMSO, 293.15 K", "value": 0.00722},
      {"measurement": "solubility (mole fraction)", "setting": "in DMSO, 298.15 K", "value": 0.00807},
      {"measurement": "solubility (mole fraction)", "setting": "in DMSO, 303.15 K", "value": 0.00913},
      {"measurement": "solubility (mole fraction)", "setting": "in DMSO, 308.15 K", "value": 0.0103},
      {"measurement": "solubility (mole fraction)", "setting": "in DMSO, 313.15 K", "value": 0.0117},
      {"measurement": "solubility (mole fraction)", "setting": "in DMSO, 318.15 K", "value": 0.0132},
      {"measurement": "solubility (mole fraction)", "setting": "in DMSO, 323.15 K", "value": 0.0149},
      {"measurement": "solubility (mole fraction)", "setting": "in DMSO, 328.15 K", "value": 0.0167},
      {"measurement": "solubility (mole fraction)", "setting": "in ethanol, 283.15 K", "value": "9.81e-05"},
      {"measurement": "solubility (mole fraction)", "setting": "in ethanol, 288.15 K", "value": 0.000123},
      {"measurement": "solubility (mole fraction)", "setting": "in ethanol, 293.15 K", "value": 0.000151},
      {"measurement": "solubility (mole fraction)", "setting": "in ethanol, 298.15 K", "value": 0.00019},
      {"measurement": "solubility (mole fraction)", "setting": "in ethanol, 303.15 K", "value": 0.000233},
      {"measurement": "solubility (mole fraction)", "setting": "in ethanol, 308.15 K", "value": 0.000288},
      {"measurement": "solubility (mole fraction)", "setting": "in ethanol, 313.15 K", "value": 0.000351},
      {"measurement": "solubility (mole fraction)", "setting": "in ethanol, 318.15 K", "value": 0.000425},
      {"measurement": "solubility (mole fraction)", "setting": "in ethanol, 323.15 K", "value": 0.000512},
      {"measurement": "solubility (mole fraction)", "setting": "in ethanol, 328.15 K", "value": 0.000611},
      {"measurement": "solubility (mole fraction)", "setting": "in isopropanol, 283.15 K", "value": "8.14e-05"},
      {"measurement": "solubility (mole fraction)", "setting": "in isopropanol, 288.15 K", "value": 0.000104},
      {"measurement": "solubility (mole fraction)", "setting": "in isopropanol, 293.15 K", "value": 0.000133},
      {"measurement": "solubility (mole fraction)", "setting": "in isopropanol, 298.15 K", "value": 0.00017},
      {"measurement": "solubility (mole fraction)", "setting": "in isopropanol, 303.15 K", "value": 0.000217},
      {"measurement": "solubility (mole fraction)", "setting": "in isopropanol, 308.15 K", "value": 0.000278},
      {"measurement": "solubility (mole fraction)", "setting": "in isopropanol, 313.15 K", "value": 0.000348},
      {"measurement": "solubility (mole fraction)", "setting": "in isopropanol, 318.15 K", "value": 0.000437},
      {"measurement": "solubility (mole fraction)", "setting": "in isopropanol, 323.15 K", "value": 0.000541},
      {"measurement": "solubility (mole fraction)", "setting": "in isopropanol, 328.15 K", "value": 0.000668},
      {"measurement": "solubility (mole fraction)", "setting": "in water, 283.15 K", "value": "2.49e-06"},
      {"measurement": "solubility (mole fraction)", "setting": "in water, 288.15 K", "value": "2.93e-06"},
      {"measurement": "solubility (mole fraction)", "setting": "in water, 293.15 K", "value": "3.4e-06"},
      {"measurement": "solubility (mole fraction)", "setting": "in water, 298.15 K", "value": "3.95e-06"},
      {"measurement": "solubility (mole fraction)", "setting": "in water, 303.15 K", "value": "4.62e-06"},
      {"measurement": "solubility (mole fraction)", "setting": "in water, 308.15 K", "value": "5.32e-06"},
      {"measurement": "solubility (mole fraction)", "setting": "in water, 313.15 K", "value": "6.12e-06"},
      {"measurement": "solubility (mole fraction)", "setting": "in water, 318.15 K", "value": "7e-06"},
      {"measurement": "solubility (mole fraction)", "setting": "in water, 323.15 K", "value": "7.96e-06"},
      {"measurement": "solubility (mole fraction)", "setting": "in water, 328.15 K", "value": "9.03e-06"}
    ]}
  ]
}
